We go through ten compounds from patent US9540369B2, “Use of kinase inhibitors to increase the susceptibility of gram positive bacteria to beta lactam antibiotics” (Wisconsin Alumni Research Foundation, priority 2014, dated 2017).

One may read the IC50 as the point on the concentration scale where inhibition reaches its midpoint. A high value points to weaker potency in that assay.

Entries after “also recorded” stand apart in the source; their conditions may differ.

In series [1] the test system is Methicillin-resistant S. aureus (strain USA300). Description: Broth growth curves of Methicillin-resistant S. aureus (USA300) with antibiotic in presence or absence of kinase inhibitor. The class given is cell-based, Staphylococcus aureus.
Series [2] has as its system L. monocytogenes. Kind of series: Broth growth curves of L. monocytogenes with antibiotic in presence or absence of kinase inhibitor. The class given is cell-based, Listeria monocytogenes. The settings on record: for synergy with ceftriaxone against L. monocytogenes: AIA drugs at 10 μM; for inhibition of growth in a β-lactam synergistic dependent manner: ceftriaxone.
In series [3] the test system is M. smegmatis. Kind of series: M. smegmatis growth curves with or without meropenem. The class given is cell-based, Mycobacterium smegmatis. The following applies: 10 μM inhibitor. As to the method:
Various AIA drugs were administered at 10 μM concentration to M. smegmatis, L. monocytogenes, and S. aureus.

In series [4] the test system is L. monocytogenes. The class given is cell-based, Listeria monocytogenes. The settings on record: β-lactam dependent growth inhibition.
The subject of series [5] is PrkA. Kind of series: In vitro protein phosphorylation (autophosphorylation and MBP phosphorylation), PrkA. The class given is biochemical, L. monocytogenes. The settings on record: 1 μM, 10 μM or 100 μM inhibitor.
Procedure: (§1) In vitro protein phosphorylation. […] To investigate substrate-level phosphorylation, ˜10 μg of myelin basic protein (Novatein Biosciences, Woburn, Mass.) were added to the reaction mixture described above and incubated at room temperature, overnight. The reactions were terminated by adding 5X SDS loading buffer. Samples were fractionated by SDS-PAGE, fixed and dried, and analyzed by autoradiography.
In series [6] the test system is Lmo0618. Kind of series: In vitro protein phosphorylation (autophosphorylation and MBP phosphorylation), Lmo0618. The class given is biochemical, L. monocytogenes. The following applies: 1 μM, 10 μM or 100 μM inhibitor.
Procedure: as §1
The test system of series [7] is zebrafish (Danio rerio). Kind of series: Zebrafish toxicity assay. The following applies: administered in their environment for five days.
Procedure: Human kinase inhibitors were administered to zebrafish in their environment for five days.
The target of series [8] is PrkA (PASTA kinase of L. monocytogenes; kinase domain, GST fusion) (Listeria monocytogenes, UniProt A0A0H3GI69). Kind of series: biochemical.
The target in series [9] is PknB (Mycobacterium tuberculosis, UniProt P9WI81).
Series [10] relates to Stk1. Description: Kinase-Glo assay, Stk1. The class given is biochemical, S. aureus. The following applies: 0-40 μM inhibitor, 20 μM ATP, 10 μM MBP. A general note: In Kinase-Glo more light means more ATP remaining.
Series [11] has as its system PrkA. Description: Kinase-Glo assay, PrkA. The class given is biochemical, L. monocytogenes.
For series [12], the system named is MSRA. The settings on record: β-lactam dependent growth inhibition.
Where [13] appears, read: 0-40 μM inhibitor, 20 μM ATP, 10 μM MBP.

On to `CN[C@@H]1C[C@H]2O[C@@](C)([C@@H]1OC)n1c3ccccc3c3c4c(c5c6ccccc6n2c5c31)C(=O)NC4` [staurosporine], for which the “S. aureus susceptibility to ceftriaxone or other β-lactam or non-β-lactam antibiotics” value in [1] (10 μM staurosporine) is “unaffected”. In addition, the “susceptibility to vancomycin or kanamycin” value in [2] (10 μM staurosporine) is reported as “unaffected”. Further, the “increase in susceptibility to ceftriaxone upon overexpression of prkA” value in series [2] (prkA^theo strain, 2 mM theophylline, 10 μM staurosporine) is 10 fold. Also, the “bacterial morphology by immunofluorescence microscopy” value in series [2] (staurosporine combined with β-lactam antibiotics) was “grossly disrupted bacterial morphology”. Further, the sensitization to lysozyme result in [2] (staurosporine, data not shown) is recorded as “increased the sensitization”. For the same compound, in series [2] (wild type, 10 μM staurosporine), the “increase in susceptibility to ceftriaxone” value was 100 fold.
Turning to `CCn1c(-c2nonc2N)nc2c(C#CC(C)(C)O)nc(CN3CCCC3)cc21` [GW1000163A], the “synergistic activity with meropenem against M. smegmatis” value (shortened to “synergistic activity with meropenem”) in series [3] is “None”. In addition, the “synergy with ceftriaxone against L. monocytogenes” value (shortened to “synergy with ceftriaxone”) in series [2] is given as “did not exhibit such synergistic activity”.
For `CCn1c(-c2nonc2N)nc2c(C#CC(C)(C)O)nc(OC[C@H](N)c3ccccc3)cc21` [GSK943949A], the “synergistic activity with meropenem” value in series [3] was “None”. The “synergy with ceftriaxone” value in [2] was “can inhibit growth in concert with ceftriaxone”.
In the case of `Cc1ncc(-c2ccnc(Nc3ccc(S(C)(=O)=O)cc3)n2)n1C(C)C` [AZD5438], in series [4], the “effective dose against L. monocytogenes” value came out at 10 µM. For the same compound, the “inhibition of PrkA autophosphorylation and substrate level (MBP) phosphorylation” value in series [5] is given as “specifically inhibits PrkA”. The “inhibition of Lmo0618 phosphorylation activity” value in series [6] was “not inhibiting”. Also, the “synergy with β-lactam antibiotics against S. aureus” value in series [1] (AZD5438, data not shown) is “not S. aureus”. The “inhibition of growth in a β-lactam synergistic dependent manner” value in [2] (50 μM AZD5438) is given as “capable of inhibiting L. monocytogenes growth”.
Take `O=c1c2ccccc2[nH]c(=S)n1CCN1CCC(=C(c2ccc(F)cc2)c2ccc(F)cc2)CC1` [diacylglycerol kinase inhibitor II]: the toxicity in zebrafish result in [7] is “highly toxic”.
Turning to `CCn1c(-c2nonc2N)nc2c(C#CC(C)(C)O)ncc(OC[C@H]3CCCNC3)c21` [GSK690693, 4-(2-(4-amino-1,2,5-oxadiazol-3-yl)-1-ethyl-7-{[(3S)-3-piperidinylmethyl]oxy}-1H-imidazo[4,5-c]pyridin-4-yl)-2-methyl-3-butyn-2-ol], the “effective dose against L. monocytogenes” value in [4] was found to be 10 µM. In addition, the toxicity in zebrafish entry in series [7] is given as “does not induce toxicity”. This compound came in with an IC50 in series [8] of 1.2 µM. In addition, in series [9] (setting [13]), the “inhibition of PknB enzymatic activity in vitro” value is “can inhibit”. Besides, the “inhibition for PknB compared to Stk1” value in series [9] (biochemical) was “four-fold increase in inhibition”. Besides, the “synergistic activity with meropenem” value in [3] was “exhibits synergy; also recorded: can work to inhibit growth synergistically with meropenem”. The “synergy with ceftriaxone” value in series [2] is on record as “can inhibit growth in concert with ceftriaxone”. Besides, the “inhibition of growth in a β-lactam synergistic dependent manner” value in [2] (100 μM GSK690693) was “inhibited L. monocytogenes growth in a β-lactam synergistic dependent manner”. In [10], the “inhibition of Stk1 enzymatic activity in vitro” value is recorded as “can inhibit”. Besides, the “inhibition of PrkA enzymatic activity in vitro” value in series [11] (setting [13]) was “can inhibit”. In [11] (biochemical), the “inhibition for PrkA compared to Stk1” value was “four-fold increase in inhibition”.
`CCn1c(-c2nonc2N)nc2c(C#CC(C)(C)O)ncc(OC[C@@H]3CCCN3)c21` [GSK614526A]: the “synergistic activity with meropenem” value in series [3] is “None”. The “synergy with ceftriaxone” value in series [2] is “can inhibit growth in concert with ceftriaxone”.
With `CCn1c(-c2nonc2N)nc2c(C#CC(C)(C)O)nc(OCCNC)cc21` [GSK949675A], the “effective dose against L. monocytogenes” value in series [4] was 10 µM. Moreover, in series [3], the “synergistic activity with meropenem” value is given as “None”. The “effective dose against MSRA” value in [12] was 10 µM. The “synergy with ceftriaxone” value in [2] was “can inhibit growth in concert with ceftriaxone”.
As to `CCn1c(-c2nonc2N)nc2c(C#CC(C)(C)O)nc(OC[C@@H](N)c3ccccc3)cc21` [GSK938890A], the “effective dose against L. monocytogenes” value in series [4] was 10 µM. In addition, in series [3], the “synergistic activity with meropenem” value is reported as “None”. Moreover, in [2], the “synergy with ceftriaxone” value is “can inhibit growth in concert with ceftriaxone”.
As to `CCn1c(-c2nonc2N)nc2c(C#CC(C)(C)O)nc(O[C@@H](CN)c3ccccc3)cc21.O=C(O)C(F)(F)F` [GSK1007102B], the “synergistic activity with meropenem” value in [3] is listed as “showing such a synergistic effect”. The “effect on M. smegmatis growth in the absence of a β-lactam” value in series [3] (no additional drugs) is reported as “minor affect on growth; also recorded: shows inhibition in the absence of a β-lactam”. Further, in series [2], the “synergy with ceftriaxone” value is recorded as “can inhibit growth in concert with ceftriaxone”.
